Entries after “also recorded” stand apart in the source; their conditions may differ.
Assays:
VSMCs [1] = experiment: ATP increase, 24 h incubation (luminescence); type: cell-based; conditions: 10 μM, p=0.014 for MK-7
Description: This study was performed to determine if vitamin K2 (MK-7) affects ATP generation. ATP is generated via glycolysis in the cytoplasm and via both the Krebs-cycle and oxidative phosphorylation in the mitochondria. ATP generation via glycolysis delivers only 2 ATP, whereas ATP generation in the mitochondria generates some 32 ATP.
(§1) To perform this study, VSCMs (5000 cells/well) were plated in 96-well plates and left to adhere overnight. Next, cells were incubated for 24 hours with either vehicle, vitamin K2 (MK-7) (10 μM), or UQ10 (10 μM). Hoechst was added to correct for cell number (1 μg/mL). Next, ATP was measured using mammalian lysis buffer for 5 minutes after which 50 μL ATP substrate solution was added to the wells and incubated for 10 minutes in a dark environment. Finally, the medium was transferred to a white plate to measure luminescence

VSMCs [2] = experiment: ATP increase, 48 h incubation with CoCl2 comparison (luminescence); type: cell-based; conditions: 10 μM, vs CoCl2 100 μM
Description: as §1, with “This study was performed to further investigate the origin of ATP production that is influenced by vitamin K2 (MK-7). To” for “To”, “for 48” for “for 24”, “vehicle, CoCl2 (100 μM),” for “vehicle,”, “5 minutes,” for “5 minutes”, “Finally,” for “Finally, the”, “measure luminescence.” for “measure luminescence”

VSMCs [3] = experiment: Hypoxia (CoCl2) induced oxidative stress in VSMCs (DCFDA); type: cell-based
Description: This study was performed to determine whether intracellular oxidative stress in VSCMs is derived from mitochondrial dysfunction. To perform this study, VSMCs were incubated with cobalt chloride, a known stabilizer of HIF1a. Cobalt chloride binding to HIF1a prevents the degradation of HIF1a and thus results in a cellular hypoxia state. HIF1a has been implicated in cancer biology as well as a number of other pathophysiologies, specifically in areas of vascularization and angiogenesis, energy metabolism, cell survival, and tumor invasion. Under normal circumstances, after injury, HIF1a is degraded by the enzyme prolyl hydroxylase (PHD). The continued up-regulation of HIF1 a (mimicked by cobalt chloride) promotes tumor growth and metastasis through its role in initiating angiogenesis and regulating cellular metabolism to overcome hypoxia. Hypoxia promotes apoptosis in both normal and tumor cells. Additionally, hypoxia generates significant intracellular oxidative stress.
To perform the study, VSMCs (10,000 cells/well) were plated in a 96-well plate and left to adhere overnight. Next, the medium was changed to a medium supplemented with 50 μM CoCl2 for 19 hours. The next day, cells were washed and incubated for 1 hour with 20 μM DCFDA in the presence of a vehicle (solvent for CoCl2 and vitamin K2 (MK-7)/UQ10), 10 μM vitamin K2 (MK-7), or 10 μM UQ10 in medium. The medium was then changed to a medium supplemented with vehicle, vitamin K2 (MK-7)/UQ10, or CoCl2, and fluorescent was measured for 6 hours. Fluorescence intensity was normalized for cell count.

VSMCs [4] = experiment: Warfarin-induced oxidative stress in VSMCs, warfarin concentration series (DCFDA); type: cell-based; conditions: warfarin 10 to 100 μM, 6 hours
Description: It is known that the level of reactive oxygen species in cells can be measured by measuring the conversion of 2′,7′—dichlorofluorescein diacetate (DCFDA) to the fluorescent dye 2′,7′-dichlorofluorescein (DCF). The fluorescence generated by cells subjected to DCFDA is directly proportional to the amount of oxidized DCFDA to DCF.
In this study, vitamin K metabolism was blocked using the vitamin K-antagonist warfarin. The study was conducted to investigate whether interference with vitamin K metabolism would cause intracellular oxidative stress. To perform the study, VSMCs (10,000 cells/well) were plated in 96-well plates and left to adhere overnight. Next, cells were incubated for 1 hour with 20 μM DCFDA.
The medium was then changed to a medium supplemented with different concentrations of warfarin ranging from 10 to 100 μM, and fluorescence intensity was measured over 6 hours. Fluorescence was normalized for number of cells.

[5] = test system: transgenic Ren-2 rats [TGR(mREN-2)27]; experiment: T-TAS thrombus formation in whole blood of treated TGR (Ren-2) rats; type: in vivo, rat
Description: This experiment was conducted in order to evaluate the effects of vitamin K2 (MK-7) on the anticoagulant activity of the new oral anticoagulants (NOAC) rivaroxaban and dabigatran using the T-TAS Total Thrombus-formation Analysis System. The T-TAS Total Thrombus-formation Analysis System is a microchip-based flow chamber system capable of evaluating whole-blood thrombogenicity. It is a useful tool in monitoring the efficacy of anticoagulants on thrombus formation and predicting the risk of bleeding complications. […] Four days before the start of the treatment, the first part of animals' body weight and food intake was measured in selected representative three cages (rats n=9) to calculate the appropriate amount of tested compounds required for addition to the diet to obtain the dosing indicated in Table 1. […] The body mass of the rats was measured at the beginning and at the end of treatment. At the beginning and at the end of treatment, the food intake per day was measured in representative group of animals to monitor the daily dosing of tested compounds (per kg of body mass). The thrombus formation in vitro was measured in whole blood using a microchip-based flow chamber system according to manufacturers' protocol (Total Thrombus-formation Analyser System, T-TAS; Fujimori Kogyo Co., Ltd., Tokyo, Japan). […]

Sprague-Dawley rats = experiment: T-TAS thrombus formation in whole blood of treated Sprague-Dawley rats; type: in vivo, rat
Description: This experiment was conducted in order to evaluate the effects of vitamin K2 (MK-7) on the anticoagulant activity of the new oral anticoagulants (NOAC) rivaroxaban and dabigatran using the T-TAS Total Thrombus-formation Analysis System. The T-TAS Total Thrombus-formation Analysis System is a microchip-based flow chamber system capable of evaluating whole-blood thrombogenicity. It is a useful tool in monitoring the efficacy of anticoagulants on thrombus formation and predicting the risk of bleeding complications. To perform the study, 45 wild-type male Sprague-Dawley and 45 transgenic male Ren-2 rats [TGR(mREN-2)27] at the age of 10-11 weeks at the beginning of the treatment period were purchased from animal facility IKEM-CEM Institute of Clinical and Experimental Medicine (Prague, Czech Republic). All animals in the experiment were housed in individually ventilated cages (2-3 rats per cage) and kept in the animal rooms of JCET at a relative humidity of 55±10%, a temperature of 22±2 ° C., and a light cycle of 7 AM to 7 PM. The rats had free access to food and water. After delivery, animals were randomly divided into 10 experimental groups (5 or 10 rats per group), as indicated below in Table 1. Four days before the start of the treatment, the first part of animals' body weight and food intake was measured in selected representative three cages (rats n=9) to calculate the appropriate amount of tested compounds required for addition to the diet to obtain the dosing indicated in Table 1. It was estimated that food intake was approximately 30 g of chow per rat per day. […] The body mass of the rats was measured at the beginning and at the end of treatment. At the beginning and at the end of treatment, the food intake per day was measured in representative group of animals to monitor the daily dosing of tested compounds (per kg of body mass). The thrombus formation in vitro was measured in whole blood using a microchip-based flow chamber system according to manufacturers' protocol (Total Thrombus-formation Analyser System, T-TAS; Fujimori Kogyo Co., Ltd., Tokyo, Japan). […]

COC1=C(OC)C(=O)C(C/C=C(\C)CC/C=C(\C)CC/C=C(\C)CC/C=C(\C)CC/C=C(\C)CC/C=C(\C)CC/C=C(\C)CC/C=C(\C)CC/C=C(\C)CCC=C(C)C)=C(C)C1=O [UQ10, reference compound]
ATP production in VSMCs compared to the vehicle (VSMCs [1]): only vitamin K2 (MK-7) increased ATP production in VSMCs significantly | ATP levels compared to CoCl2 (VSMCs [2]): significant higher ATP levels | hypoxia induced oxidative stress (counteraction) (VSMCs [3]; 10 μM, after 50 μM CoCl2 for 19 hours): This effect was not found

[Cl][Co][Cl] [CoCl2, cobalt chloride]
oxidative stress induced by cobalt chloride (VSMCs [3]; 50 μM CoCl2): induces increased oxidative stress

CC(=O)CC(c1ccccc1)c1c(O)c2ccccc2oc1=O (stereo not shown) [warfarin]
intracellular oxidative stress caused by warfarin (VSMCs [4]): did cause intracellular oxidative stress; also recorded: results in increased intracellular oxidative stress

O=C(NC[C@H]1CN(c2ccc(N3CCOCC3=O)cc2)C(=O)O1)c1ccc(Cl)s1 [Rivaroxaban, rivaroxaban, reference compound]
thrombus formation [5]: also inhibited thrombus formation | thrombus formation (Sprague-Dawley rats): inhibited thrombus formation
